Laboratory results: US12448394B2, “Heterocyclic pyrazole derivatives as type III receptor tyrosine kinase inhibitors” (DEVELOPMENT CENTER FOR BIOTECHNOLOGY, priority 2019, dated 2025)

Assays:
[1] = system: HCC827 NSCLC cell with EGFR exon 19 deletion mutation; test: HCC827 cell proliferation assay (counter screen); assay type: cell-based, human; conditions: Homo sapiens, HCC827 cells, 72 hours treatment, CellTiter96, read-out: anti-proliferation activity HCC827 EGFR Exon19 del, IC50 ranking
Description: (§1) Inhibitions of cell growths by compounds were measured using CellTiter™-96 assay. The cytotoxicities of compounds of the invention were evaluated in cell line panels with different signaling pathway dependencies, including MV4-11 human acute myeloid leukemia cell with FLT3-ITD mutation, Molm-14 human acute myeloid leukemia cell with FLT3-ITD mutation, THP-1 human acute monocytic leukemia cell with NRAS G12D mutation, A375 melanoma cell with BRAF V600E mutation, and HCC827 NSCLC cell with EGFR exon 19 deletion mutation.
(§2) HCC827 cells are non-small cell lung carcinoma (NSCLC) cells encoding EGFR exon 19 deletion mutation, which renders the cell growth dependent on EGFR signaling instead of class III RTKs signaling. HCC827 cells (catalog #CRL-2868) were obtained from the ATCC. Briefly, cells were cultured in RPMI1640 medium supplemented with 10% FBS and incubated at 37° C. in 5% CO2 atmosphere. Cells were allowed to expand until reaching saturation, at which point they were sub-cultured or harvested for assay use.
(§3) MV4-11, Molm-14, THP-1, A375, and HCC827 cells were seeded into 96-well plates at 6500, 25000, 5000, 2000 and 8000 cells/well, respectively, and incubated at 37° C., 5% CO2 overnight. Then, these seeded cells were treated with increasing concentrations of the test compounds and incubated for another 72 hours. At the end of the incubation, CellTiter96® AQueous One Solution Reagent (Promega, […]) was added and incubated for the additional 2˜4 hours. Cell viability was determined by measuring absorbance at 490 nm using EMax® microplate reader (Molecular Devices, San Jose, CA, USA).

[2] = system: phosphorylation of FLT3 and its down-stream effector STAT5; test: Western blotting of p-FLT3 and p-STAT5 in MV4-11 cells; assay type: cell-based; conditions: Homo sapiens; at 30 nM treatment, 3 hours, FLT3-ITD positive MV4-11 leukemia cells; read-out: inhibition activity against phosphorylation of FLT3 and its down-stream effector STAT5
Description: The potent compounds of formula (I) in EXAMPLE 2 were evaluated, by western blotting assay, for their cellular potencies against phosphorylation of FLT3 and its down-stream effector STAT5 in MV4-11 leukemia cell line with constitutive activation of FLT3 signaling. For western blotting experiments, MV4-11 cells were cultured in IMDM medium containing 0.1% FBS overnight. On the assay day, three million cells were treated with or without compounds for 3 hours in 15 mL tubes. Then, the whole cell lysates were harvested, following extraction by adding 2×SDS Sample Buffer and boiling on hot plate at 105° C. for 15 minutes. The resulting cell lysates were separated by SDS-PAGE electrophoresis and transferred to PVDF membrane. Protein expression was detected using immunoblot with corresponding primary antibody and secondary antibody following the standard procedures. Antibody against p-FLT3 (Tyr-591), anti-rabbit IgG HRP-linked secondary antibody, and anti-mouse IgG HRP-linked secondary antibody were purchased from Cell Signaling Technology. Antibody against p-STAT5 (Tyr-694) was purchased from BD biosciences. Antibody against actin was purchased from R&D system. […] Band intensities of western blot were also quantified by ChemiDoc™ MP Imaging System. Relative intensities of bandscorresponding to drug treatments at a single concentration (30 nM) were compared to the DMSO control group. The percentage (%) inhibition at each drug concentration was calculated using the formula: Percentage(%)inhibition=(1−Relative intensity)×100.

[3] = system: Molm-14 human acute myeloid leukemia cell with FLT3-ITD mutation; test: Molm-14 cell proliferation assay (CellTiter 96); assay type: cell-based; conditions: Homo sapiens; Molm-14 cells, 72 hours treatment, CellTiter96; read-out: anti-proliferation activity Molm-14 (FLT3-ITD), IC50 ranking
Description: as §1
The compounds disclosed herein were tested in Molm-14 cell proliferation assay to determine their cellular potencies against FLT3 signal pathway dependent cell growths. Molm-14 cells are human acute myeloid leukemia (AML) cells harboring ligand-independent FLT3-ITD activating mutation, which renders the abnormal proliferation of the AML cells FLT3 signaling pathway dependent. Inhibition of FLT3 kinase activity will result in reduced growths and/or cell deaths. […] Briefly, cells were grown in RPMI 1640 medium supplemented with 10% heat inactivated fetal bovine serum and incubated at 37° C. in 5% CO2 atmosphere. Cells were allowed to expand until reaching saturation, at which point they were sub-cultured or harvested for assay use.
as §3

[4] = system: THP-1 human acute monocytic leukemia cell with NRAS G12D mutation; test: THP-1 cell proliferation assay (counter screen); assay type: cell-based; conditions: Homo sapiens, THP-1 cells, 72 hours treatment, CellTiter96, read-out: anti-proliferation activity THP-1 NRAS N12D, IC50 ranking
Description: as §1
THP-1 cells are human acute monocytic leukemia cells with NRAS G12D mutation, which renders the cell growth independent of class III RTKs signaling. THP-1 cells (catalog #TIB-202) were obtained from the ATCC. Briefly, cells were grown in RPMI 1640 medium supplemented with 10% heat inactivated fetal bovine serum and 0.05 mM 2-mercaptoethanol and incubated at 37° C. in 5% CO2 atmosphere. Cells were allowed to expand until reaching saturation, at which point they were sub-cultured or harvested for assay use.
as §3

[5] = system: A375 melanoma cell with BRAF V600E mutation; test: A375 cell proliferation assay (counter screen); assay type: cell-based, human; conditions: Homo sapiens, A-375, A375 cells, 72 hours treatment, CellTiter96, read-out: anti-proliferation activity A375 BRAF V600E, IC50 ranking
Description: as §1
as §2, with “A375” for “HCC827”, “melanoma” for “non-small cell lung carcinoma (NSCLC)”, “BRFA V600E” for “EGFR exon 19 deletion”, “BRAF” for “EGFR”, “#CRL-1619)” for “#CRL-2868)”, “DMEM containing” for “RPMI1640 medium supplemented with”
as §3

MET kinase = molecular target: T1, MET kinase (Homo sapiens, UniProt P08581); test: MET kinase assay (AlphaScreen, counter screen); assay type: biochemical; conditions: read-out: Ranking of IC50 values, MET
T1 construct: purchased SignalChem
Description: Because MET kinase belonged to Class VIII RTK family have one transmembrane a chain linked with one extracellular β chain which is different form Class III RTK family with 5 Immunoglobin-like extracellular domains. Standard assay conditions were 1 ng of recombinant MET kinase (SignalChem) with 3 ng Biotin-conjugated Poly-(Glu 4: Tyr 1) (Cisbio) in the assay buffer ([…], 10 mM MOPs, pH 7.0, 0.21 mM EDTA, 0.5% glycerol, 1 mg/mL BSA, 0.01% 2-mercaptoethanol, 0.001% Brij35, 10 mM MgCl2) in a final volume of 25 μL. Reactions were incubated at 30° C. for 45 min and stopped by adding 5 μL of 50 mM EDTA. Analysis of resulting product using an AlphaScreen kit and counted with Enspire Alpha (PerkinElmer). […] The IC50 values of inhibitors were determined after carrying out assays with each compound at serially diluted concentrations in duplication. The results were analyzed using linear regression software (GraphPad Prism 5; GraphPad Software Inc.)

T1 sequence (P08581 25-1390): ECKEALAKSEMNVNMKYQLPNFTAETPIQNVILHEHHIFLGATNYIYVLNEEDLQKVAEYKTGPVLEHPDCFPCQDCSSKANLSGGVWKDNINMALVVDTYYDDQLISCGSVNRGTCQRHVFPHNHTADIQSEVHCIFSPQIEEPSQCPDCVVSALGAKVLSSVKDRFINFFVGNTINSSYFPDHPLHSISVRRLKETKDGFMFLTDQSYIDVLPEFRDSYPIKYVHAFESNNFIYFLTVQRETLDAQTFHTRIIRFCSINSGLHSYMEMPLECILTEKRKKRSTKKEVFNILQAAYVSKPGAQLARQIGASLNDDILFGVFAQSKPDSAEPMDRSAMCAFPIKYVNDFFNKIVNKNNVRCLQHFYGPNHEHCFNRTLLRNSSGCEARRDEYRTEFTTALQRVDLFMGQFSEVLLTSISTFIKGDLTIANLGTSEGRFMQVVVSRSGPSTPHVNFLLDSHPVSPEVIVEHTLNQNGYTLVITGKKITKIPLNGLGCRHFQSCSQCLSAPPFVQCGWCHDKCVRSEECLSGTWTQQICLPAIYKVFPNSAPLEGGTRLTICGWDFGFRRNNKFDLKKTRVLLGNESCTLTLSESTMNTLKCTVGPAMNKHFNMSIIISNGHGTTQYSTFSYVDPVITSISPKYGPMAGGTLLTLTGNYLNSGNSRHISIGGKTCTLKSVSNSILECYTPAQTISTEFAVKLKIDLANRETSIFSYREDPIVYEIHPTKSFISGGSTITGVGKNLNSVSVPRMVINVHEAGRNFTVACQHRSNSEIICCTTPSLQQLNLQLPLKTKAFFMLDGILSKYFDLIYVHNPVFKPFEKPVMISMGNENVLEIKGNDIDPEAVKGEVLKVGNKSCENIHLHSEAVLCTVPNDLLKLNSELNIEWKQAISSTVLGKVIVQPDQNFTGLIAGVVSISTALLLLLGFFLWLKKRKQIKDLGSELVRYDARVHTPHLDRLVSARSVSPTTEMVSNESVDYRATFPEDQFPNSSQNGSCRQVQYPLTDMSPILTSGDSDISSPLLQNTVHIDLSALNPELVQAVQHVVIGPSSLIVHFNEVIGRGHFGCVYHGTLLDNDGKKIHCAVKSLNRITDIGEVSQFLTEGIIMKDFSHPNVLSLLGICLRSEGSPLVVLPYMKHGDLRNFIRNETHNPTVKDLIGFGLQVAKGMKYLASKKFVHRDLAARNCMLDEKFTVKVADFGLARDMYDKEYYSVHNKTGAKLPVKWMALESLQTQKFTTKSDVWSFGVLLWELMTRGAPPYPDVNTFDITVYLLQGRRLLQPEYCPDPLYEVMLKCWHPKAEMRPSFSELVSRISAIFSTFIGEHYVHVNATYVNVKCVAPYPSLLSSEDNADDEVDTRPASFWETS

IC50 [3] [nM]	IC50 (MET kinase) [nM]	SMILES	IC50 [1] [nM]	inhibition at 0.03 µM [2] [%]	IC50 [4] [nM]	IC50 [5] [nM]
< 30	> 1000	Cn1ncc2ccc(-c3n[nH]c4c3Cc3sc(-c5ccc(CCN6CCOCC6=O)cc5)cc3-4)cc21 [Compound 66, 4-(4-(3-(1-methyl-1H-indazol-6-yl)-1,4-dihydro-thieno[2′,3′:4,5]cyclopenta [1,2-c]pyrazol-6-yl)phenethyl)morpholin-3-one]	> 10000	> 50	> 10000	> 10000
< 30	> 1000	Cn1ncc2ccc(-c3n[nH]c4c3Cc3sc(-c5ccc(CN6CCCOCC6)cc5)cc3-4)cc21 [Compound 97, 4-(4-(3-(1-methyl-1H-indazol-6-yl)-1,4-dihydro-thieno[2′,3′:4,5]cyclopenta [1,2-c]pyrazol-6-yl)benzyl)-1,4-oxazepane]	> 10000	> 50	1000 to 10000	1000 to 10000
30 to 100	300 to 1000	Cn1ncc2ccc(-c3n[nH]c4c3Cc3sc(-c5ccc(CN6CCC6)cc5)cc3-4)cc21 [Compound 103, 6-(4-(azetidin-1-ylmethyl)phenyl)-3-(1-methyl-1H-indazol-6-yl)-1,4-dihydro-thieno[2′,3′:4,5]cyclopenta [1,2-c]pyrazole]	> 10000	> 50	> 10000	> 10000
< 30	100 to 300	Cn1ncc2ccc(-c3n[nH]c4c3Cc3sc(-c5ccc(CN6CCCCC6)cc5)cc3-4)cc21 [Compound 100, 3-(1-methyl-1H-indazol-6-yl)-6-(4-(piperidin-1-ylmethyl)phenyl)-1,4-dihydrothieno[2′,3′:4,5] cyclopenta[1,2-c]pyrazole]	> 10000	> 50	1000 to 10000	> 10000
–	> 1000	Cn1ncc2ccc(-c3n[nH]c4c3Cc3sc(-c5ccc(CN6CCOCC6)cn5)cc3-4)cc21 [Compound 95, 4-((6-(3-(1-methyl-1H-indazol-6-yl)-1,4-dihydro-thieno[2′,3′:4,5]cyclopenta [1,2-c]pyrazol-6-yl)pyridin-3-yl)methyl) morpholine]	–	> 50	–	–

Continued, molecule first:

SMILES	IC50 [3] [nM]	IC50 (MET kinase) [nM]	IC50 [1] [nM]	inhibition at 0.03 µM [2] [%]	IC50 [4] [nM]	IC50 [5] [nM]
Cn1ncc2ccc(-c3n[nH]c4c3Cc3sc(-c5csc(C(=O)N6CCOCC6)c5)cc3-4)cc21 [Compound 48, (4-(3-(1-methyl-1H-indazol-6-yl)-1,4-dihydro-thieno[2′,3′:4,5]cyclopenta [1,2-c]pyrazol-6-yl)thiophen-2-yl) (morpholino)methanone]	< 30	> 1000	> 10000	> 50	> 10000	> 10000
Cn1ncc2ccc(-c3n[nH]c4c3Cc3sc(-c5csc(C(=O)N6CCOCC6)n5)cc3-4)cc21 [Compound 60, (4-(3-(1-methyl-1H-indazol-6-yl)-1,4-dihydro-thieno[2′,3′:4,5]cyclopenta [1,2-c]pyrazol-6-yl)thiazol-2-yl)(morpholino) methanone]	< 30	> 1000	1000 to 10000	> 50	1000 to 10000	1000 to 10000
C[C@@H]1CN(Cc2ccc(-c3cc4c(s3)Cc3c(-c5ccc6cnn(C)c6c5)n[nH]c3-4)cn2)C[C@H](C)O1 [Compound 9, (2S,6R)-2,6-dimethyl-4-((5-(3-(1-methyl-lH-indazol-6-yl)-1,4-dihydro-thieno[2′,3′:4,5]cyclopenta [1,2-c]pyrazol-6-yl)pyridin-2-yl)methyl) morpholine]	< 30	> 1000	> 10000	> 50	> 10000	> 10000
Cn1ncc2ccc(-c3n[nH]c4c3Cc3sc(-c5ccc(CN6CCOCC6=O)cc5)cc3-4)cc21 [Compound 59, 4-(4-(3-(1-methyl-1H-indazol-6-yl)-1,4-dihydro-thieno[2′,3′:4,5]cyclopenta [1,2-c]pyrazol-6-yl)benzyl)morpholin-3-one]	< 30	> 1000	> 10000	> 50	> 10000	> 10000
Cn1ncc2ccc(-c3n[nH]c4c3Cc3sc(-c5ccc(CN6CCOCC6)cc5F)cc3-4)cc21 [Compound 32, 4-(3-fluoro-4-(3-(1-methyl-1H-indazol-6-yl)-1,4-dihydrothieno [2′,3′:4,5]cyclopenta [1,2-c]pyrazol-6-yl)benzyl)morpholine]	100 to 300	> 1000	> 10000	> 50	> 10000	> 10000
C[C@@H]1CN(Cc2ccc(-c3cc4c(s3)Cc3c(-c5ccc6cn[nH]c6c5)n[nH]c3-4)cn2)C[C@H](C)O1 [Compound 16, (2R,6S)-4-((5-(3-(1H-indazol-6-yl)-1,4-dihydro-thieno[2′,3′:4,5]cyclopenta [1,2-c]pyrazol-6-yl)pyridin-2-yl)methyl)-2,6-dimethylmorpholine]	< 30	> 1000	> 10000	> 50	> 10000	> 10000
Cn1ncc2ccc(-c3n[nH]c4c3Cc3sc(-c5csc(CN6CCOCC6)c5)cc3-4)cc21 [Compound 52, 4-((4-(3-(1-methyl-1H-indazol-6-yl)-1,4-dihydro-thieno[2′,3′:4,5]cyclopenta [1,2-c]pyrazol-6-yl)thiophen-2-yl)methyl) morpholine]	30 to 100	> 1000	> 10000	> 50	> 10000	> 10000
